Data: ChEMBL document CHEMBL5257095, “Synthesis and biological evaluation of novel pteridin-7(8H)-one derivatives as potent CDK2 inhibitors” (Bioorg Med Chem Lett, 2023)

Legend:
[1] = target: Cyclin-dependent kinase 2/cyclin E (Homo sapiens) (UniProt P24864+P24941+O96020); test: Inhibition of CDK2/Cyclin E (unknown origin) at 500 nM; format: protein-complex assay
[2] = target: Cyclin-dependent kinase 2/cyclin E (Homo sapiens, UniProt P24941); test: Inhibition of CDK2/Cyclin E (unknown origin); format: protein-complex assay
MV4-11 = test: Antiproliferative activity against human MV4-11 cells assessed as inhibition of cell proliferation; format: functional, cell-based
HCT-116 = test: Antiproliferative activity against human HCT-116 cells assessed as inhibition of cell proliferation; format: functional, cell-based
Homo sapiens [3] = organism: Homo sapiens; test: Selectivity ratio of IC50 for inhibition of CDK6/Cyclin D3 (unknown origin) to IC50 for inhibition of CDK2/Cyclin E (unknown origin)
CDK6/cyclin D3 = CDK6/cyclin D3 (Homo sapiens, UniProt Q00534); test: Inhibition of CDK6/Cyclin D3 (unknown origin); format: protein-complex assay
[4] = target: Cyclin-dependent kinase 4/cyclin D1 (Homo sapiens, UniProt P11802); test: Inhibition of CDK4/Cyclin D1 (unknown origin); format: protein-complex assay
Homo sapiens [5] = organism: Homo sapiens; test: Selectivity ratio of IC50 for inhibition of CDK4/Cyclin D1 (unknown origin) to IC50 for inhibition of CDK2/Cyclin E (unknown origin)

Chain of Cyclin-dependent kinase 4/cyclin D1 (P11802 whole entry): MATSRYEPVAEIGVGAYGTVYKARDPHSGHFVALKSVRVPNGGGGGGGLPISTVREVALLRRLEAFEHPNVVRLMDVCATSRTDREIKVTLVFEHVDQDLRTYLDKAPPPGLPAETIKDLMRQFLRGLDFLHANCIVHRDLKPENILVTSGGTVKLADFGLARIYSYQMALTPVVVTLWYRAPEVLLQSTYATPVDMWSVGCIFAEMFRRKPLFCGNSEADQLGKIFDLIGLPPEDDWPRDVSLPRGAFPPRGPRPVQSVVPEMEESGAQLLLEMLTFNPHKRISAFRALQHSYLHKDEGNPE
Chain of Cyclin-dependent kinase 4/cyclin D1 (P24385 whole entry, further chain): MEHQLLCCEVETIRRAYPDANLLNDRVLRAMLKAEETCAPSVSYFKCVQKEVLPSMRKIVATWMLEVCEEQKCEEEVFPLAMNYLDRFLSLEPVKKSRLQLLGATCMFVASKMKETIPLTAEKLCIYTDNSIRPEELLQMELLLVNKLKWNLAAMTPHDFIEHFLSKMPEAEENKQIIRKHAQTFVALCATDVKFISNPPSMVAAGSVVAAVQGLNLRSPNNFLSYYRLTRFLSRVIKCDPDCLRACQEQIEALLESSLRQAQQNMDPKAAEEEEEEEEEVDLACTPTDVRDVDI
Chain of CDK6/cyclin D3 (P30281 whole entry): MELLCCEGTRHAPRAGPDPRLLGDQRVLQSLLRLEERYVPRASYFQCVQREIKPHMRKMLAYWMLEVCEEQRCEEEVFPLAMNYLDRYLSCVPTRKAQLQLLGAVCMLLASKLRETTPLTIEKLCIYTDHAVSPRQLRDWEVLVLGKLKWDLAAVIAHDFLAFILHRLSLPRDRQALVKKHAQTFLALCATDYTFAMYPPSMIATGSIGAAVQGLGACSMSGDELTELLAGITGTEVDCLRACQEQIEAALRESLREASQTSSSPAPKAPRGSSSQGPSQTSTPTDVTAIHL
Chain of CDK6/cyclin D3 (Q00534 whole entry): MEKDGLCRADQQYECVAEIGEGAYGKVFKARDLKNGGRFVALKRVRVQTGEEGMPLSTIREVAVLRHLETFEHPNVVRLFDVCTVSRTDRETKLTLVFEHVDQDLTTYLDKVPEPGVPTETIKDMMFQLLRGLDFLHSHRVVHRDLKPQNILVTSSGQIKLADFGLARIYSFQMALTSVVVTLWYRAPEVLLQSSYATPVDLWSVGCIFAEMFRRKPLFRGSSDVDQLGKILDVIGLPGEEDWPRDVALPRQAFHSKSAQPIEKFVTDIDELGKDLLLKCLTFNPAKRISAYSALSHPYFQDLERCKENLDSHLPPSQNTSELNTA

Compound `CCS(=O)(=O)N1CCC(Nc2ncc3nc(O)c(=O)n(C4CCCC4)c3n2)CC1` has an inhibition [1] of 65.4%, an IC50 [2] of 1040 nM and an IC50 (MV4-11) of 9150 nM. The IC50 (HCT-116) was 9320 nM.
With `CS(=O)(=O)c1ccc(Nc2ncc3nc(O)c(=O)n(C4CCCC4)c3n2)cc1` the inhibition [1] was 30%.
Work on `CCC(CC)n1c(=O)c(OC)nc2cnc(NC3CCN(S(C)(=O)=O)CC3)nc21` yielded an inhibition [1] of 79.6%, an IC50 [2] of 350 nM and an IC50 (MV4-11) of 4880 nM. For the same compound, the IC50 (HCT-116) was 5500 nM.
`CN1CCN(c2ccc(Nc3ncc4nc(O)c(=O)n(C5CCCC5)c4n3)cc2)CC1` gave an inhibition [1] of 48.3%, an IC50 [2] of 1600 nM and an IC50 (MV4-11) of 4920 nM. For the same compound, the IC50 (HCT-116) was 6230 nM.
In the case of `CS(=O)(=O)c1ccc(Nc2ncc3nc(NN)c(=O)n(C4CCCC4)c3n2)cc1`, the inhibition [1] is reported as 67.3%, the IC50 [2] is reported as 920 nM and the IC50 (MV4-11) is reported as 1170 nM. The IC50 (HCT-116) was 3430 nM.
For `CCNc1ncc2nc(NC3CCN(S(C)(=O)=O)CC3)c(=O)n(C3CCCC3)c2n1`, the inhibition [1] was 34.4%.
In the case of `CS(=O)(=O)N1CCC(Nc2ncc3nc(O)c(=O)n([C@@H]4CCC[C@H]4O)c3n2)CC1`, the inhibition [1] is reported as 43%.
Compound `CCNc1nc2cnc(NC3CCN(S(C)(=O)=O)CC3)nc2n(C2CCCC2)c1=O` has an inhibition [1] of 20.3%.
With `CCC(C)n1c(=O)c(OC)nc2cnc(NC3CCN(S(C)(=O)=O)CC3)nc21` (stereo not given) the inhibition [1] was 70.2%, the IC50 [2] was 500 nM and the IC50 (MV4-11) was 7810 nM. It also gave an IC50 (HCT-116) of 6340 nM.
In the case of `CS(=O)(=O)N1CCC(Nc2ncc3nc(O)c(=O)n(C4CCNC4)c3n2)CC1` (stereo not given), the inhibition [1] is reported as 4.1%.
Compound `CNc1nc2cnc(NC3CCN(S(=O)(=O)C4CC4)CC3)nc2n(C2CCCC2)c1=O` has an inhibition [1] of 9.2%.
In the case of `CCNc1ncc2nc(NC3CCN(S(=O)(=O)N(C)C)CC3)c(=O)n(C3CCCC3)c2n1`, the inhibition [1] is reported as 43.2%.
With `CS(=O)(=O)N1CCC(Nc2nc3cnc(NN)nc3n(C3CCCC3)c2=O)CC1` the inhibition [1] was 26.8%.
`CCC(CC)n1c(=O)c(O)nc2cnc(NC3CCN(S(C)(=O)=O)CC3)nc21` showed an inhibition [1] of 39.2%.
With `CN(C)S(=O)(=O)N1CCC(Nc2ncc3nc(O)c(=O)n(C4CCCC4)c3n2)CC1` the inhibition [1] was 15.8%.
`CN(C)S(=O)(=O)N1CCC(Nc2nc3cnc(NCC(F)F)nc3n(C3CCCC3)c2=O)CC1` showed an inhibition [1] of 38.2%.
For `CS(=O)(=O)N1CCC(Nc2ncc3nc(NN)c(=O)n(C4CCCC4)c3n2)CC1`, the inhibition [1] was 85.6%, the IC50 [2] was 130 nM and the Ratio IC50 (Homo sapiens [3]) was 4. It also gave an IC50 (MV4-11) of 1950 nM, an IC50 (CDK6/cyclin D3) of 460 nM and an IC50 (HCT-116) of 1620 nM. The IC50 [4] was 340 nM and the Ratio IC50 (Homo sapiens [5]) was 3.
`COc1nc2cnc(NC3CCN(S(C)(=O)=O)CC3)nc2n(C2CCOCC2)c1=O` showed an inhibition [1] of 45.8%, an IC50 [2] of 1700 nM and an IC50 (MV4-11) of 4260 nM. The IC50 (HCT-116) was 5010 nM.
Work on `CS(=O)(=O)N1CCC(Nc2ncc3nc(NCC(F)F)c(=O)n(C4CCCC4)c3n2)CC1` yielded an inhibition [1] of 51.2%.
`CS(=O)(=O)N1CCC(Nc2ncc3c(n2)n(C2CCCC2)c(=O)c2nncn23)CC1` showed an inhibition [1] of 14.2%.
`COc1nc2cnc(NC3CCN(S(C)(=O)=O)CC3)nc2n(C2CCCC2)c1=O` was tested, and the inhibition [1] was 82.4%, the IC50 [2] was 160 nM and the IC50 (MV4-11) was 2570 nM. The IC50 (HCT-116) was 1930 nM.
Work on `O=c1c(O)nc2cnc(NC3CCN(S(=O)(=O)C4CC4)CC3)nc2n1C1CCCC1` yielded an inhibition [1] of 20.1%.
`C[C@@]1(O)CCC[C@H]1n1c(=O)c(C(F)F)cc2cnc(NC3CCN(S(C)(=O)=O)CC3)nc21` [EBVACICLIB] gave an inhibition [1] of 98.8%, an IC50 (MV4-11) of 570 nM and an IC50 (HCT-116) of 220 nM.
Compound `CS(=O)(=O)N1CCC(Nc2ncc3nc(O)c(=O)n(C4CCCC4)c3n2)CC1` has an inhibition [1] of 62.2%, an IC50 [2] of 1220 nM and an IC50 (MV4-11) of 13900 nM. For the same compound, the IC50 (HCT-116) was 10600 nM.
`CCS(=O)(=O)N1CCC(Nc2ncc3nc(NC)c(=O)n(C4CCCC4)c3n2)CC1` showed an inhibition [1] of 45.4%.
In the case of `COc1nc2cnc(NC3CCN(S(=O)(=O)N(C)C)CC3)nc2n(C2CCCC2)c1=O`, the inhibition [1] is reported as 36.1%.
Work on `CN(C)S(=O)(=O)N1CCC(Nc2nc3cnc(NN)nc3n(C3CCCC3)c2=O)CC1` yielded an inhibition [1] of 27.1%.
In the case of `CS(=O)(=O)c1ccc(Nc2ncc3c(n2)n(C2CCCC2)c(=O)c2nncn23)cc1`, the inhibition [1] is reported as 1.7%.
Compound `CNc1nc2cnc(NC3CCN(S(C)(=O)=O)CC3)nc2n(C2CCCC2)c1=O` has an inhibition [1] of 46.2%.
In the case of `CCC(C)n1c(=O)c(O)nc2cnc(NC3CCN(S(C)(=O)=O)CC3)nc21` (stereo not given), the inhibition [1] is reported as 23.4%.
Work on `CS(=O)(=O)N1CCC(Nc2ncc3nc(O)c(=O)n(C4CCOCC4)c3n2)CC1` yielded an inhibition [1] of 9.3%.
Compound `CS(=O)(=O)N1CCC(Nc2nc3cnc(NCC(F)F)nc3n(C3CCCC3)c2=O)CC1` has an inhibition [1] of 35.1%.
